Numbers after ± are expanded uncertainties.
How the values were obtained:
[1] = for surface tension liquid-gas: Wilhelmy plate method; for viscosity: 101.3 kPa, Liquid, Concentric cylinders viscometry
[2] = refractive index (Na D-line) (dimensionless); conditions: 293.15 K; 101.33 kPa; Liquid; Standard Abbe refractometry
[3] = xn = mol fraction of the nth substance listed; conditions: x1 = 1; for surface tension liquid-gas: Wilhelmy plate method; for viscosity: 101.3 kPa, Liquid, Concentric cylinders viscometry

Work on `CCCCCCCCCCO` [decan-1-ol] yielded a surface tension liquid-gas ([1]; 298.15 K) of 28.35 ± 0.52 mN/m, a viscosity ([1]; 298.15 K) of 11.83 ± 0.25 mPa·s and a surface tension liquid-gas ([1]; 303.15 K) of 27.29 ± 0.52 mN/m. The viscosity ([1]; 303.15 K) was 9.754 ± 0.2 mPa·s, the surface tension liquid-gas ([1]; 308.15 K) was 26.23 ± 0.52 mN/m and the viscosity ([1]; 308.15 K) was 8.135 ± 0.17 mPa·s. The surface tension liquid-gas ([1]; 313.15 K) was 25.17 ± 0.52 mN/m, the viscosity ([1]; 313.15 K) was 6.842 ± 0.14 mPa·s and the refractive index [2] was 1.437 ± 0.001.

In the case of `CN(C)C=O` [dimethylformamide], the surface tension liquid-gas ([1]; 298.15 K) is reported as 35.2 ± 0.5 mN/m, the viscosity ([1]; 298.15 K) is reported as 0.8162 ± 0.017 mPa·s and the surface tension liquid-gas ([1]; 303.15 K) is reported as 34.1 ± 0.5 mN/m. For the same molecule, the viscosity ([1]; 303.15 K) was 0.7678 ± 0.016 mPa·s, the surface tension liquid-gas ([1]; 308.15 K) was 33 ± 0.5 mN/m and the viscosity ([1]; 308.15 K) was 0.7262 ± 0.016 mPa·s. For the same molecule, the surface tension liquid-gas ([1]; 313.15 K) was 32 ± 0.5 mN/m, the viscosity ([1]; 313.15 K) was 0.678 ± 0.015 mPa·s and the refractive index [2] was 1.429 ± 0.001.

`CN(C)C=O` [dimethylformamide] + CCCCCCCCCCO showed a surface tension liquid-gas ([3]; 298.15 K) of 35.2 ± 0.5 mN/m, a viscosity ([3]; 298.15 K) of 0.8162 ± 0.017 mPa·s and a surface tension liquid-gas ([3]; 303.15 K) of 34.1 ± 0.5 mN/m. For the same molecule, the viscosity ([3]; 303.15 K) was 0.7678 ± 0.016 mPa·s, the surface tension liquid-gas ([3]; 308.15 K) was 33 ± 0.5 mN/m and the viscosity ([3]; 308.15 K) was 0.7262 ± 0.016 mPa·s. It also gave a surface tension liquid-gas ([3]; 313.15 K) of 32 ± 0.5 mN/m and a viscosity ([3]; 313.15 K) of 0.678 ± 0.015 mPa·s.

For `CN(C)C=O` [dimethylformamide] + CCCCCCCCCO, the surface tension liquid-gas ([3]; 298.15 K) was 35.2 ± 0.5 mN/m, the viscosity ([3]; 298.15 K) was 0.8162 ± 0.017 mPa·s and the surface tension liquid-gas ([3]; 303.15 K) was 34.1 ± 0.5 mN/m. The viscosity ([3]; 303.15 K) was 0.7678 ± 0.016 mPa·s, the surface tension liquid-gas ([3]; 308.15 K) was 33 ± 0.5 mN/m and the viscosity ([3]; 308.15 K) was 0.7262 ± 0.016 mPa·s. It also gave a surface tension liquid-gas ([3]; 313.15 K) of 32 ± 0.5 mN/m and a viscosity ([3]; 313.15 K) of 0.678 ± 0.015 mPa·s.

For `CN(C)C=O` [dimethylformamide] + CCCCCCCCO, the surface tension liquid-gas ([3]; 298.15 K) was 35.2 ± 0.5 mN/m, the viscosity ([3]; 298.15 K) was 0.8162 ± 0.017 mPa·s and the surface tension liquid-gas ([3]; 303.15 K) was 34.1 ± 0.5 mN/m. For the same molecule, the viscosity ([3]; 303.15 K) was 0.7678 ± 0.016 mPa·s, the surface tension liquid-gas ([3]; 308.15 K) was 33 ± 0.5 mN/m and the viscosity ([3]; 308.15 K) was 0.7262 ± 0.016 mPa·s. It also gave a surface tension liquid-gas ([3]; 313.15 K) of 32 ± 0.5 mN/m and a viscosity ([3]; 313.15 K) of 0.678 ± 0.015 mPa·s.

In the case of `CCCCCCCCCO` [nonan-1-ol], the surface tension liquid-gas ([1]; 298.15 K) is reported as 27.58 ± 0.57 mN/m, the viscosity ([1]; 298.15 K) is reported as 9.715 ± 0.22 mPa·s and the surface tension liquid-gas ([1]; 303.15 K) is reported as 26.53 ± 0.57 mN/m. For the same molecule, the viscosity ([1]; 303.15 K) was 7.927 ± 0.18 mPa·s, the surface tension liquid-gas ([1]; 308.15 K) was 25.49 ± 0.56 mN/m and the viscosity ([1]; 308.15 K) was 6.664 ± 0.15 mPa·s. The surface tension liquid-gas ([1]; 313.15 K) was 24.44 ± 0.56 mN/m, the viscosity ([1]; 313.15 K) was 5.645 ± 0.13 mPa·s and the refractive index [2] was 1.433 ± 0.001.

`CCCCCCCCO` [octan-1-ol] gave a surface tension liquid-gas ([1]; 298.15 K) of 27.47 ± 0.52 mN/m, a viscosity ([1]; 298.15 K) of 7.661 ± 0.16 mPa·s and a surface tension liquid-gas ([1]; 303.15 K) of 26.42 ± 0.52 mN/m. It also gave a viscosity ([1]; 303.15 K) of 6.402 ± 0.13 mPa·s, a surface tension liquid-gas ([1]; 308.15 K) of 25.41 ± 0.52 mN/m and a viscosity ([1]; 308.15 K) of 5.425 ± 0.11 mPa·s. For the same molecule, the surface tension liquid-gas ([1]; 313.15 K) was 24.38 ± 0.52 mN/m, the viscosity ([1]; 313.15 K) was 4.628 ± 0.097 mPa·s and the refractive index [2] was 1.429 ± 0.001.

Reference: the NIST ThermoML archive (doi:10.1016/j.jct.2014.03.022)
